From patent US7238801B2, “Phthalocyanine compound, method for production thereof, and near infrared absorbing dye and near infrared absorbing filter using same” (Nippon Shokubai Co., Ltd., priority 2002, dated 2007) come the findings set out here.

Like-named read-outs stand apart in the source and are kept apart here.

Common to all, as to assay type: physicochemical
The nature of series [1]: Maximum absorption wavelength by spectrophotometer. How it is done:
Now, working examples and comparative examples will be described below. The maximum absorption wavelengths (λmax) reported in this invention are magnitudes determined in acetone.
The phthalocyanine compound obtained in the present example, i.e. VOPc(PhS)8{2,6-(CH3)2PhO}4{(C2H5)2NCH2CH2NH}4, was tested for maximum absorption wavelengths in acetone and in chloroform by the use of a spectrophotometer (made by Shimadzu Seisakusho Ltd. and sold under the trademark designation of “UVl-3100”).

Series [2] can be described thus: Solubility in toluene and methyl ethyl ketone at room temperature. Conditions: 10 ml, room temperature (25° C.), visual; for Solubility MEX: methyl ethyl ketone. The source says: The solubility shown in Table 23 represents the data obtained by rating the relevant values on the […] scale, wherein ⊚ stands for a value of not less than 5% by weight, ◯ for a value of not less than 1% by weight and less than 5% by weight, Δ for a value of not less than 0.1% by weight and less than 1% by weight, and X for a value of less than 0.1% by weight.

Series [3] is described as follows: Maximum absorption wavelength by spectrophotometer. The source holds these as a separate data set.

On to “CuPc(2,5-Cl2PhO)8{2,6-(CH3)2PhO}4(PhCH2NH)4 [reference compound]”, for which, in series [1], the “Max. absorption wavelength (in acetone)” value worked out at 807 nm.

As to “VOPc(2,5-Cl2PhO)8{2,6-(CH3)2PhO}4(PhCH2NH)4 [reference compound]”, in series [1], the “Max. absorption wavelength (in acetone)” value came out at 870 nm.

Regarding “VOPc(2,5-Cl2PhO)8{2,6-(CH3)2PhO}4{Ph(CH)3CHNH}3]F [reference compound]”, in series [1], the “Max. absorption wavelength (in acetone)” value is 834 nm.

Take “VOPc(2,5-Cl2PhO)8{2,6-Br2-4-CH3PhO}4 {Ph(CH)3CHNH}3]F [reference compound]”: in series [1], the “Max. absorption wavelength (in acetone)” value worked out at 840 nm.

With “VOPc(4-CNPhO)8{2,6-(CH3)2PhO}4{Ph(CH)3CHNH}3F [reference compound]”, in series [1], the “Max. absorption wavelength (in acetone)” value was determined as 834 nm.

Regarding “VOPc(PhS)8{2,6-(CH3)2PhO}4(PhCH2NH)4 [reference compound]”, the “Max. absorption wavelength (in acetone)” value in series [1] is given as 912 nm.

Regarding “VOPc(PhS)8{2,6-(CH3)2PhO}4[{(CH3)2CH}2NCH2CH2NH]4 [Example 3]”, in series [2], the “Solubility MEX” value was “⊚ (a value of not less than 5% by weight)” and the Solubility toluene result is “⊚ (a value of not less than 5% by weight)”. In series [1], the “Max. absorption wavelength (in acetone)” value was 952 nm and the “Max. absorption wavelength (in chloroform)” value stood at 970 nm.

As to “VOPc(PhS)8{2,6-(CH3)2PhO}4{(C2H5)2NCH2CH2NH}4 [Example 1]”, in series [2], the “Solubility MEX” value is given as “⊚ (a value of not less than 5% by weight)” and the Solubility toluene result is “⊚ (a value of not less than 5% by weight)”. In series [1], the “Max. absorption wavelength (in acetone)” value was 941 nm and the “Max. absorption wavelength (in chloroform)” value amounted to 960 nm.

Regarding “VOPc(PhS)8{2,6-(CH3)2PhO}4{(CH3)2CHO(CH2)3NH}4 [Example 9]”, in series [2], the “Solubility MEX” value is reported as “⊚ (a value of not less than 5% by weight)” and the Solubility toluene entry is listed as “⊚ (a value of not less than 5% by weight)”. Also, in series [1], the “Max. absorption wavelength (in acetone)” value stood at 930 nm and the “Max. absorption wavelength (in chloroform)” value came to 949 nm.

Consider “VOPc(PhS)8{2,6-(CH3)2PhO}4{(CH3CH2O(CH2)3NH}4 [Example 8]”, for which, in series [2], the “Solubility MEX” value is reported as “⊚ (a value of not less than 5% by weight)” and the Solubility toluene result is “⊚ (a value of not less than 5% by weight)”. For the same substance, in series [1], the “Max. absorption wavelength (in acetone)” value is 928 nm and the “Max. absorption wavelength (in chloroform)” value was found to be 947 nm.

As to “VOPc(PhS)8{2,6-(CH3)2PhO}4{CH3(CH2)3CH(C2H5)CH2NH}4 [Example 16]”, in series [2], the “Solubility MEX” value is on record as “⊚ (a value of not less than 5% by weight)” and the Solubility toluene result was “⊚ (a value of not less than 5% by weight)”. Moreover, in series [1], the “Max. absorption wavelength (in acetone)” value is given as 939 nm and the “Max. absorption wavelength (in chloroform)” value turned out to be 958 nm.

Consider “VOPc(PhS)8{2,6-(CH3)2PhO}4{CH3(CH2)3CH(C2H5)CH2O(CH2)3NH}4 [Example 11]”, for which, in series [2], the “Solubility MEX” value was “⊚ (a value of not less than 5% by weight)” and the Solubility toluene result is “⊚ (a value of not less than 5% by weight)”. In series [1], the “Max. absorption wavelength (in acetone)” value came out at 933 nm and the “Max. absorption wavelength (in chloroform)” value amounted to 952 nm.

“VOPc(PhS)8{2,6-(CH3)2PhO}4{CH3(CH2)3O(CH2)3NH}4 [Example 10]”: in series [2], the “Solubility MEX” value is listed as “⊚ (a value of not less than 5% by weight)” and the Solubility toluene entry is reported as “⊚ (a value of not less than 5% by weight)”. Besides, in series [1], the “Max. absorption wavelength (in acetone)” value is reported as 930 nm and the “Max. absorption wavelength (in chloroform)” value stood at 950 nm.

Take “VOPc(PhS)8{2,6-(CH3)2PhO}4{CH3(CH2)5NH}4 [Example 15]”: in series [2], the “Solubility MEX” value is “⊚ (a value of not less than 5% by weight)” and the Solubility toluene entry was “⊚ (a value of not less than 5% by weight)”. For the same substance, in series [1], the “Max. absorption wavelength (in acetone)” value is listed as 930 nm and the “Max. absorption wavelength (in chloroform)” value came out at 948 nm.

On to “VOPc(PhS)8{2,6-(CH3)2PhO}4{CH3(CH2)7NH}4 [Example 18]”, for which, in series [2], the “Solubility MEX” value is “⊚ (a value of not less than 5% by weight)” and the Solubility toluene result is “⊚ (a value of not less than 5% by weight)”. Further, in series [1], the “Max. absorption wavelength (in acetone)” value came out at 931 nm and the “Max. absorption wavelength (in chloroform)” value stood at 950 nm.

For the substance “VOPc(PhS)8{2,6-(CH3)2PhO}4{CH3(CH2)17NH}4 [Example 19]”, in series [2], the “Solubility MEX” value is reported as “⊚ (a value of not less than 5% by weight)” and the Solubility toluene entry is recorded as “⊚ (a value of not less than 5% by weight)”. In series [1], the “Max. absorption wavelength (in acetone)” value is on record as 935 nm and the “Max. absorption wavelength (in chloroform)” value was determined as 954 nm.

Turning to “VOPc(PhS}8{2,6-(CH3)2PhO}4[{CH3(CH2)2CH}2NCH2CH2NH]4 [Example 4]”, in series [2], the “Solubility MEX” value was “⊚ (a value of not less than 5% by weight)” and the Solubility toluene entry was “⊚ (a value of not less than 5% by weight)”. In series [1], the “Max. absorption wavelength (in acetone)” value was determined as 944 nm and the “Max. absorption wavelength (in chloroform)” value came out at 963 nm.

With “VOPc{2-(CH3O)PhS}8{2,6-(CH3)2PhO}4{(C2H5)2NCH2CH2NH}4 [Example 2]”, in series [2], the “Solubility MEX” value is on record as “⊚ (a value of not less than 5% by weight)” and the Solubility toluene entry is “⊚ (a value of not less than 5% by weight)”. In series [1], the “Max. absorption wavelength (in acetone)” value was found to be 950 nm and the “Max. absorption wavelength (in chloroform)” value worked out at 970 nm.

Regarding “VOPc{4-(CH3O)PhS}8{2,6-(CH3)2PhO}4{CH3(CH2)3CH(C2H5)CH2NH}4 [Example 17]”, in series [2], the “Solubility MEX” value is given as “⊚ (a value of not less than 5% by weight)” and the Solubility toluene result is on record as “⊚ (a value of not less than 5% by weight)”. Besides, in series [3], the “Max. absorption wavelength (in acetone)” value came to 962 nm. Also, in series [1], the “Max. absorption wavelength (in acetone)” value was determined as 960 nm and the “Max. absorption wavelength (in chloroform)” value is recorded as 980 nm.
